Tests used:
[1] = target: Ribosomal protein S6 kinase alpha-3 (Homo sapiens) (UniProt P51812); test: Inhibition of human Rsk2 (2 to end residues) using KKKNRTLSVA as substrate measured after 40 mins in presence of [gamma33P]ATP by scintillation counting method; set-up: scale not given: the % may be the effect or the level left
[2] = test system: PI3-kinase p110-alpha/p85-alpha (Homo sapiens), P27986+P42336 [E545K]; test: Inhibition of recombinant full-length human PI3K p110alpha/p85alpha E545K mutant assessed as residual activity at 10 uM using phosphatidylinositol-4, 5-bisphosphate as substrate measured after 40 mins by fluorescence assay; format: protein-complex assay
Homo sapiens [3] = species on record: Homo sapiens; test: Inhibition of recombinant full-length human AURKA I31F mutant assessed as residual activity at 10 uM using LRRASLG as substrate measured after 40 mins in presence of [gamma33P]ATP by scintillation counting method
[4] = target: Ephrin type-A receptor 8 (Homo sapiens) (UniProt P29322); test: Inhibition of recombinant human EphA8 (615 to 911 residues) assessed as residual activity at 10 uM using KTFCGTPEYLAPEVRREPRILSEEEQEMFRDFDYIADWC as substrate measured after 40 mins in presence of [gamma33P]ATP by scintillation counting method
HCT-116 = test: Induction of apoptosis in human HCT116 cells assessed as early apoptotic cells at 50 nM measured after 48 hrs by Annexin V-FITC/propidium iodide staining-based flow cytometry (reference value: 0.418%); format: functional
Mus musculus = species on record: Mus musculus; test: Inhibition of recombinant mouse ABL L782P/G784R/W785L/L786V mutant (27 to end residues) assessed as residual activity at 10 uM using EAIYAAPFAKKK as substrate measured after 40 mins in presence of [gamma33P]ATP by scintillation counting method
[5] = target: Mitogen-activated protein kinase kinase kinase kinase 1 (Homo sapiens) (UniProt Q92918); test: Inhibition of recombinant human HPK1 (1 to 346 residues) assessed as residual activity at 10 uM using myelin basic protein as substrate measured after 40 mins in presence of [gamma33P]ATP by scintillation counting method
[6] = target: Serine/threonine-protein kinase mTOR (Homo sapiens) (UniProt P42345); test: Inhibition of recombinant full-length human mTOR assessed as residual activity at 10 uM measured after 40 mins in presence of [gamma33P]ATP by scintillation counting method
Homo sapiens [7] = species on record: Homo sapiens; test: Inhibition of recombinant human EphB2 A848S/ K918E mutant (560 to end residues) assessed as residual activity at 10 uM using KTFCGTPEYLAPEVRREPRILSEEEQEMFRDFDYIADWC as substrate measured after 40 mins in presence of [gamma33P]ATP by scintillation counting method
[8] = target: Activin receptor type-2A (Homo sapiens) (UniProt P27037); test: Inhibition of recombinant human ACTR2 (162 to end residues) assessed as residual activity at 10 uM using casein as substrate measured after 120 mins in presence of [gamma33P]ATP by scintillation counting method
[9] = target: cGMP-dependent protein kinase 1 (Homo sapiens) (UniProt Q13976); test: Inhibition of recombinant full-length human PKG1beta assessed as residual activity at 10 uM using RRRLSFAEPG as substrate measured after 40 mins in presence of [gamma33P]ATP by scintillation counting method
[10] = target: Tyrosine-protein kinase receptor TYRO3 (Homo sapiens) (UniProt Q06418); test: Inhibition of human RSE (451 to end residues) using KVEKIGEGTYGVVYK as substrate measured after 40 mins in presence of [gamma33P]ATP by scintillation counting method; set-up: scale not given: the % may be the effect or the level left
[11] = target: cAMP-dependent protein kinase catalytic subunit PRKX (Homo sapiens) (UniProt P51817); test: Inhibition of recombinant full-length human PrKX assessed as residual activity at 10 uM using RRRLSFAEPG as substrate measured after 40 mins in presence of [gamma33P]ATP by scintillation counting method
[12] = target: Casein kinase 2 (Homo sapiens) (UniProt P67870+P68400+P19784+Q8NEV1); test: Inhibition of human CK2 assessed as residual activity at 10 uM; format: protein assay
[13] = target: Activated CDC42 kinase 1 (Homo sapiens) (UniProt Q07912); test: Inhibition of recombinant human ACK1 (1 to 389 residues) assessed as residual activity at 10 uM using EFPIYDFLPAKKK as substrate measured after 40 mins in presence of [gamma33P]ATP by scintillation counting method
Homo sapiens [14] = species on record: Homo sapiens; test: Inhibition of recombinant full-length human ATRIP/ATR M211T mutant assessed as residual activity at 10 uM using GST-cMyc-p53 as substrate measured after 40 mins by fluorescence assay
[15] = target: Tyrosine-protein kinase Lck (Homo sapiens) (UniProt P06239); test: Inhibition of recombinant full-length human activated Lck assessed as residual activity at 10 uM using KVEKIGEGTYGVVYK as substrate measured after 40 mins in presence of [gamma33P]ATP by scintillation counting method
[16] = target: G protein-coupled receptor kinase 6 (Homo sapiens) (UniProt P43250); test: Inhibition of recombinant full-length human GRK6 assessed as residual activity at 10 uM using casein as substrate measured after 40 mins in presence of [gamma33P]ATP by scintillation counting method
[17] = target: Ribosomal protein S6 kinase alpha-1 (Homo sapiens) (UniProt Q15418); test: Inhibition of recombinant full-length human Rsk1 assessed as residual activity at 10 uM using KKKNRTLSVA as substrate measured after 40 mins in presence of [gamma33P]ATP by scintillation counting method
[18] = test system: Receptor tyrosine-protein kinase erbB-2 (Homo sapiens), P04626 [G778D]; test: Inhibition of recombinant human ErbB2 G778D mutant (676 to end residues) assessed as residual activity at 10 uM using poly (Glu, Tyr) 4:1 as substrate measured after 40 mins in presence of [gamma33P]ATP by scintillation counting method
[19] = target: Muscle, skeletal receptor tyrosine-protein kinase (Homo sapiens) (UniProt O15146); test: Inhibition of recombinant human MuSK (530 to end residues) assessed as residual activity at 10 uM using myelin basic protein as substrate measured after 40 mins in presence of [gamma33P]ATP by scintillation counting method
[20] = target: FKBP12A/mTOR (Homo sapiens) (UniProt P62942+P42345); test: Inhibition of recombinant full-length human mTOR/FKBP12 assessed as residual activity at 10 uM measured after 40 mins in presence of [gamma33P]ATP by scintillation counting method; format: protein-complex assay
[21] = test system: Hepatocyte growth factor receptor (Homo sapiens), P08581 [Y1230D]; test: Inhibition of recombinant human MET A1209G/V1290L/Y1248D mutant (974 to end residues) assessed as residual activity at 10 uM using KKKGQEEEYVFIE as substrate measured after 40 mins in presence of [gamma33P]ATP by scintillation counting method

Sequence of Tyrosine-protein kinase receptor TYRO3 (Homo sapiens) (Q06418 whole entry): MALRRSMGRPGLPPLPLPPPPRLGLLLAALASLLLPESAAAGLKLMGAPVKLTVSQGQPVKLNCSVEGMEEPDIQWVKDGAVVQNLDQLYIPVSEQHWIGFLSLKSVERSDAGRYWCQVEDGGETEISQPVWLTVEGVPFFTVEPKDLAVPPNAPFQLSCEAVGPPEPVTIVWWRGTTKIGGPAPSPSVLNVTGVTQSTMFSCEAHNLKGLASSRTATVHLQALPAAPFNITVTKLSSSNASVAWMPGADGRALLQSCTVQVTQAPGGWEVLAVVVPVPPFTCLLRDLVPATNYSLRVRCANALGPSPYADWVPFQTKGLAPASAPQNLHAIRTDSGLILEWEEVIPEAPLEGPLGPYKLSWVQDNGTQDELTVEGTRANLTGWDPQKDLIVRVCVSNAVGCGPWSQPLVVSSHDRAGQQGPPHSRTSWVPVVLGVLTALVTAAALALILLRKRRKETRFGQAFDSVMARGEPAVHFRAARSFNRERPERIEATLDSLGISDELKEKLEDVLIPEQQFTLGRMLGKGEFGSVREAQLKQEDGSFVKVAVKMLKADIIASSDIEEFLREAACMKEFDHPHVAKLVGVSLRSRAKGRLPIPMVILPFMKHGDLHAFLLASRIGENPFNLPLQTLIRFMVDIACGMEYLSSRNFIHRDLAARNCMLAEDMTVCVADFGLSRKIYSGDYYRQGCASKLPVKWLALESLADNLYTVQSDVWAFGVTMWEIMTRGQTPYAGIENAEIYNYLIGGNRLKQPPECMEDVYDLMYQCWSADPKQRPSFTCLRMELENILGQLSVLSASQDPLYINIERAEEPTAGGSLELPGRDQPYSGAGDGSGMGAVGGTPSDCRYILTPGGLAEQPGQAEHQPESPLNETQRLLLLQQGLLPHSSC
Sequence of cAMP-dependent protein kinase catalytic subunit PRKX (Homo sapiens) (P51817 whole entry): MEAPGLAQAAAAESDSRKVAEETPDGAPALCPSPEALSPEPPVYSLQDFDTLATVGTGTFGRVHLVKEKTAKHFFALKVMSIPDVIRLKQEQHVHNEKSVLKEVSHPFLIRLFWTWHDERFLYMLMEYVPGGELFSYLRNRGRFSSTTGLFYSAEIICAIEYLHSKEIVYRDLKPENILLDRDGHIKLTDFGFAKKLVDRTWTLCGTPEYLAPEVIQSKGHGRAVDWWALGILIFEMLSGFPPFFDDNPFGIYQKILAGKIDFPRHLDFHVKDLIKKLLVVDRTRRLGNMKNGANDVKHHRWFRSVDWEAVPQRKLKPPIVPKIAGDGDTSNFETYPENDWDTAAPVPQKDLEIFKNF
Sequence of Ribosomal protein S6 kinase alpha-1 (Homo sapiens) (Q15418 whole entry): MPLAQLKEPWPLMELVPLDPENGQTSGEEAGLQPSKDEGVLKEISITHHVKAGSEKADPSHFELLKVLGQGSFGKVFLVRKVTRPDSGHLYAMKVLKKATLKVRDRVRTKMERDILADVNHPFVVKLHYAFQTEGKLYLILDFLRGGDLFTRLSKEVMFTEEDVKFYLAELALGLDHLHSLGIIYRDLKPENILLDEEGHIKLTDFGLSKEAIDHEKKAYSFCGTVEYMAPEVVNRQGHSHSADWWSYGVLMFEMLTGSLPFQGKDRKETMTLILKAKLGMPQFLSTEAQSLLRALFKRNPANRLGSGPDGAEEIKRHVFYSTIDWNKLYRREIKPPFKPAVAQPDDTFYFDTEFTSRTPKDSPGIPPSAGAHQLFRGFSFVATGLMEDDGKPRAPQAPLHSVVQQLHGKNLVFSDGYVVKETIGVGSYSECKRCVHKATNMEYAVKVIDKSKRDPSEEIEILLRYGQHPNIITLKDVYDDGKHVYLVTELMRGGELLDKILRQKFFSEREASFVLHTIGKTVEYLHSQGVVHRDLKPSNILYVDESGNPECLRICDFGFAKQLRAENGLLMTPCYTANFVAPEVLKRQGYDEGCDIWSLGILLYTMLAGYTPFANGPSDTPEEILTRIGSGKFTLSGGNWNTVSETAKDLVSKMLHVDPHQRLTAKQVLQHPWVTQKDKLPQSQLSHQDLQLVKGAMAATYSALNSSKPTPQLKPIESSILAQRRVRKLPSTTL
Sequence of Muscle, skeletal receptor tyrosine-protein kinase (Homo sapiens) (O15146 whole entry): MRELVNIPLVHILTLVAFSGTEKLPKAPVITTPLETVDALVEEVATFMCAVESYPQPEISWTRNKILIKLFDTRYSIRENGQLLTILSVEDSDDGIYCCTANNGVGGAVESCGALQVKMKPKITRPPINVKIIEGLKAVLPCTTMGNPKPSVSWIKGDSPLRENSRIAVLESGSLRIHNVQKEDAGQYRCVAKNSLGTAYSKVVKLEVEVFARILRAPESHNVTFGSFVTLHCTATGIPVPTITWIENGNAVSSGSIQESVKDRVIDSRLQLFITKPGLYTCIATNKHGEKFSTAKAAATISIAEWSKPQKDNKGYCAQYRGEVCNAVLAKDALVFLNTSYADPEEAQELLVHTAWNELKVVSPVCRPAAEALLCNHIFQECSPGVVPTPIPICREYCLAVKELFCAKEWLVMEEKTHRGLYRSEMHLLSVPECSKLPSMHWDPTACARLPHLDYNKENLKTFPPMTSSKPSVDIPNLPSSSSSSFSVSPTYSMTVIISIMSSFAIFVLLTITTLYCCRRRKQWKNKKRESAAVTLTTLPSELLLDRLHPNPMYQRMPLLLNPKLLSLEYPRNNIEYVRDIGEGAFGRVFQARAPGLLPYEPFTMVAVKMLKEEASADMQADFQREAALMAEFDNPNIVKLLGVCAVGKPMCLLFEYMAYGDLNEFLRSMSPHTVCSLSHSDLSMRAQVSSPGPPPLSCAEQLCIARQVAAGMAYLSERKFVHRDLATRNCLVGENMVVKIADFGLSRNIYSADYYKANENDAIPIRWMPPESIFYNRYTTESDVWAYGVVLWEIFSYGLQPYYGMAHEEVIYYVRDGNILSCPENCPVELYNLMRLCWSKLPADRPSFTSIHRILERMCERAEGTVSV
Sequence of Activated CDC42 kinase 1 (Homo sapiens) (Q07912 whole entry, looked up, the tested form may be a part): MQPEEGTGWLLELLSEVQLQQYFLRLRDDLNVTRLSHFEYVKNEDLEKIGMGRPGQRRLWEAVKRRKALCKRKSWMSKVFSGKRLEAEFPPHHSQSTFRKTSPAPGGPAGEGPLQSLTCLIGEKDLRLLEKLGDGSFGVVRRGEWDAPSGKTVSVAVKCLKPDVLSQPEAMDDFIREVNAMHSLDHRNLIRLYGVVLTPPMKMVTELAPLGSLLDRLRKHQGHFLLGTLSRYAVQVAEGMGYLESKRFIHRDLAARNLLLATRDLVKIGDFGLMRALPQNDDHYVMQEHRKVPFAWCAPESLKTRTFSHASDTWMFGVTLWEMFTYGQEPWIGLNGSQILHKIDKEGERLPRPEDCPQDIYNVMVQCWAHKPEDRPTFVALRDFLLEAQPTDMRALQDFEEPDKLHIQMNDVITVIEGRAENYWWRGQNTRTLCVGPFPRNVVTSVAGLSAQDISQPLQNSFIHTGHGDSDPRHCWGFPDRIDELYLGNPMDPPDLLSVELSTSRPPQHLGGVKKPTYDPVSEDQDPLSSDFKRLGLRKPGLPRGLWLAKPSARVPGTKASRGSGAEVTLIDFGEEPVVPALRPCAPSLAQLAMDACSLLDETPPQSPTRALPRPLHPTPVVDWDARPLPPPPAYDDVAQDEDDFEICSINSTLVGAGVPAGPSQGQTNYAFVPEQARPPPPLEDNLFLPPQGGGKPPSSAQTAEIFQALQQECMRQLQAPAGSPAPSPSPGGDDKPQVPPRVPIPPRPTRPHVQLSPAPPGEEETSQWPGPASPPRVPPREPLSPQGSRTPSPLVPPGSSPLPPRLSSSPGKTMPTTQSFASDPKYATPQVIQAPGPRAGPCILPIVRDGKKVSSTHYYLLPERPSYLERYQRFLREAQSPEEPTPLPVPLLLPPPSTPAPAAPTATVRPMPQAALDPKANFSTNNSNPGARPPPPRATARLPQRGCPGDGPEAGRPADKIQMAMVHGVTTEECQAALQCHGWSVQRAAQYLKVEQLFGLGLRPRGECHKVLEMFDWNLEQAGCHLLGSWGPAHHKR
Sequence of Ephrin type-A receptor 8 (Homo sapiens) (P29322 whole entry, the tested form may be a part): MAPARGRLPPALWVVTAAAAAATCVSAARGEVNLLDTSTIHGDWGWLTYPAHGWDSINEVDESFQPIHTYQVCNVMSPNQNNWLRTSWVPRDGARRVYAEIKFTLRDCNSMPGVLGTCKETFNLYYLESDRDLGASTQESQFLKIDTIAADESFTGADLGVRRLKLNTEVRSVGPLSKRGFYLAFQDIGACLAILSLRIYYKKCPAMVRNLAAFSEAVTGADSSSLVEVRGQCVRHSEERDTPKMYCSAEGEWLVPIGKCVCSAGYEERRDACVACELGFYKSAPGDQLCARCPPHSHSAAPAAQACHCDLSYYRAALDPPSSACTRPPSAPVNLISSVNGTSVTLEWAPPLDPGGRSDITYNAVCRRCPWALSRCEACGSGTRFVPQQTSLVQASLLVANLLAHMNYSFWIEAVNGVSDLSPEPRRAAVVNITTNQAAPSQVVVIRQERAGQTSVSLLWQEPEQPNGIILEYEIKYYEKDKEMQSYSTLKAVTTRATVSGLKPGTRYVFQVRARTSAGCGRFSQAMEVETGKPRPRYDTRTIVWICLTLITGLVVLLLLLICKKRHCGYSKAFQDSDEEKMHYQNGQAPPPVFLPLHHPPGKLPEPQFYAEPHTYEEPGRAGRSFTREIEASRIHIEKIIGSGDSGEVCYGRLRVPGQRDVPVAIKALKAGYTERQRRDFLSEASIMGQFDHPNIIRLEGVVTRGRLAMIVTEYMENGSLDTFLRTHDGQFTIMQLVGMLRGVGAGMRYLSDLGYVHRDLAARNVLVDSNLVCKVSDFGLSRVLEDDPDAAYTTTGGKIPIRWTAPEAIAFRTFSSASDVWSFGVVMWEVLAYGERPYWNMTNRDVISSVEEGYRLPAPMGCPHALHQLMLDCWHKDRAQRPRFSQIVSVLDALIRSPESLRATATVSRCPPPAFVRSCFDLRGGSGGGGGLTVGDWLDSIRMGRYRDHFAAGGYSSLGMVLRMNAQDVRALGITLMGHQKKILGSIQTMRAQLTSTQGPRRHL
Sequence of FKBP12A/mTOR (Homo sapiens) (P62942 2-108 limits assumed, other chains not shown): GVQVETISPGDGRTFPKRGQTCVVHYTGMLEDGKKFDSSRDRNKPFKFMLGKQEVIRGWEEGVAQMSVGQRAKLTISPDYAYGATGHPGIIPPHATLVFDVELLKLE

## Cc1cc(C)c(CNc2nc(Cl)nc3c2ncn3C2CCCC2)c(=O)[nH]1
[1]
  Activity: 100%
[2]
  Activity: 93.5%
Homo sapiens [3]
  Activity: 103%
[4]
  Activity: 97%
HCT-116
  Activity: 3.57%
Mus musculus
  Activity: 101%
[5]
  Activity: 106%
[6]
  Activity: 78.5%
Homo sapiens [7]
  Activity: 93.5%
[8]
  Activity: 104%
[9]
  Activity: 112%
[10]
  Activity: 126%
[11]
  Activity: 113%
[12]
  Activity: 111%
[13]
  Activity: 118%
Homo sapiens [14]
  Activity: 106%
[15]
  Activity: 102%
[16]
  Activity: 104%
[17]
  Activity: 112%
[18]
  Activity: 109%
[19]
  Activity: 114%
[20]
  Activity: 96.5%
[21]
  Activity: 102%
